According to patent US4912092A, “Methods for increasing extracellular adenosine and for stabilizing mast cells” (The Regents of the University of California, priority 1987, dated 1990):
Entries after “also recorded” stand apart in the source; their conditions may differ.

What was measured:
[1] = tested on: human splenic lymphoblast cell line (WI-L2); test: Adenosine excretion by human lymphoblasts during ATP breakdown (2-deoxyglucose); type: cell-based
Procedure: (§1) The history and properties of the cell line have been described by Hershfield et al. in Science, Vol. 197, p. 1284, 1977.
(§2) Catabolism of cellular ATP stores was stimulated by adding either 2-deoxyglucose or a calcium ionophore. At various times, the amount of adenosine released by the cells into the supernatant, or the amount of nucleotides remaining in the cells, was determined by mixing 30 μl of chilled 4.4N perchloric acid with 300 μl of supernatants, or by adding 300 μl of chilled 0.4N perchloric acid to the cells collected as pellets and centrifuging the mixtures at 500×G for 10 minutes at 4° C. […] 1245, 1975. Following centrifugation at 1500×G for three minutes at 4° C., the aqueous phase is removed and frozen at -20° C. until assayed for adenosine, inosine, or for nucleotides. Adenosine was evaluated isocratically on a C-18 microBondapak reverse phase column equilibrated with 4 millimolar potassium phosphate, (pH 3.4):acetonitrile 60% in water (95:5 v/v) buffer. Adenosine elutes at 8-10 minutes, and its identity was confirmed by its sensitivity to adenosine deaminase and by spiking with adenosine standards. The extracted samples from the cell pellet were analyzed for nucleotides by high pressure liquid chromatography on a Whatman Partisil-10 (SAX) column equilibrated with 10 millimolar potassium phosphate, pH 3.78, and eluted with a linear gradient to a 0.25 molar potassium phosphate, 0.5 molar KCl, pH 3.45. […] Peaks were quantitated by comparison with high pressure liquid chromatography analysis of suitable standards.
Cells were grown to about 0.5×10^6 cells/ml (mid-log phase) in FIG. 2 and to about 1.0×10^6 cells/ml (early stationary phase) in FIGS. 7-9.

[2] = tested on: HPRT+ neuroblastoma cells; test: Adenosine excretion by ionophore-stimulated HPRT+ neuroblastoma cells; type: cell-based; conditions: for Concentration of Adenosine: HPRT+, AICA riboside 50 μM
Procedure: as §1, §2
To induce ATP catabolism, the growth medium was replaced by medium containing micromolar amounts of the calcium ionophore A23187 and 1.0 μM deoxycoformycin.

ischemic myocardium = test: Regional myocardial blood flow during coronary artery occlusion (radiolabelled microspheres); type: in vivo, dog
Text: FIG. 4. […] The means plus the standard deviations are graphed. […] Thirteen mongrel dogs were anesthetized with phenobarbital. […] C.V. Dis. 20; 55 (1977).

inosine = test: Venous inosine levels during coronary artery occlusion in dogs; type: in vivo, dog; conditions: over the 60-minute assay period (FIG. 5)
Procedure: Thirteen mongrel dogs were anesthetized with phenobarbital. […] C.V. Dis. 20; 55 (1977). […] Two of the surviving saline-treated animals fibrillated. […] The range was 4.4 to 100 μM.
That the increase in the levels of adenosine is due, at least in part, to a reduction in the amount of ATP that is converted to inosine was shown by analysis of venous blood from dogs in Example III for inosine levels.

[3] = tested on: adenylosuccinase deficiency (autism); test: Therapeutic trial in patients with adenylosuccinase deficiency (autism); type: in vivo, human
Text: (§3) Following authorization, therapeutic trials with AICA riboside were started in two patients with adenylosuccinase deficiency (autism). […] On Day 55, both patients were briefly readmitted for clinical, biochemical and psychiatric evaluation. […] Treatment was maintained until Day 71, and arrested at that date.

[4] = Plasma, CSF, erythrocyte and urine measurements in the patient trial; type: in vivo, human
Text: as §3
A correct assessment of the renal loss of the nucleoside could not be obtained.

[5] = dog, in vivo
Procedure: Thirteen mongrel dogs were anesthetized with phenobarbital. The anterior coronary vein was cannulated and a blood sample was collected into 2N perchloric acid. […] Regional myocardial blood flow was measured within 15 μm radiolabelled spheres infused into the left atzium at 5 and 60 minutes during the ischemic period, as described by Heymann et al. in Prog. […] The electrocardiogram and arterial pressure were monitored throughout the period of ischemia.

[6] = after two months of continuous administration
[7] = one hour after intravenous administration

haematology and clinical chemistry parameters ([3]; before and during the trial treatment): normal | AICA riboside in plasma and CSF ([4]; all dosages used, oral 5 to 2×10 mg/kg/day and intravenous 20 mg/kg/day): could not be detected | AICA riboside in plasma [4, 7]: undetectable in plasma | concentrations of AICA riboside triphosphate reached in erythrocytes ([4]; oral as well as intravenous administration): of the same magnitude as those of GTP | arterial blood gas-content and systemic venous granulocyte counts versus saline [5]: not significantly different
SMILES: NC(=O)c1ncn([C@@H]2O[C@H](CO)[C@@H](O)[C@H]2O)c1N [AICA riboside, 5-amino-4-imidazolecarboxamide riboside]
adenosine release from lymphoblasts ([1]; 48-hour pretreatment, 100-500 micromolar (FIG. 2)): enhances adenosine release | adenosine excreted ([1]; 48-hour pretreatment, 500 micromolar AICA riboside, about 1.4 without drug): about 2.3 nanomoles of adenosine/10^6 WI-L2 cells | adenosine release from lymphoblasts ([1]; 18 hours preincubation before 2-deoxyglucose exposure (FIG. 7)): enhanced adenosine release | adenosine release from lymphoblasts ([1]; three-hour preincubation and four-hour incubation during 2-deoxyglucose treatment (FIGS. 8, 9)): increased adenosine release | adenosine secreted by treated cells versus control cells ([2]; 50 μM AICA riboside, A23187 and 1.0 μM deoxycoformycin): at least twofold more adenosine than control cells | Concentration of Adenosine ([2]; ionophore 0 μg/ml): < 0.01 µM | Concentration of Adenosine ([2]; ionophore 10 μg/ml, control 0.329): 0.698 µM | regional myocardial blood flow to the ischemic myocardium versus saline (ischemic myocardium; 5 and 60 minutes of occlusion): significantly greater | flow to normal (non-ischemic) myocardium (ischemic myocardium; dog, in vivo): did not alter flow to normal myocardium | collateral blood flow versus saline (radiolabelled microspheres) (ischemic myocardium; dogs of Example IX): significantly greater | inosine levels in venous blood versus saline (inosine): more than twofold decrease | autistic features, older patient [3, 6]: did not show any modification | autistic features, younger sibling [3, 6]: clear-cut improvement | parent's description of both patients ([3]; during therapy): more pleasantly active and more easy to handle during therapy | clinical or biochemical side effects ([3]; oral 5 mg/kg/day up to 2×10 mg/kg/day): no adverse effects; also recorded: No clinical or biochemical side effects were observed | AICA riboside triphosphate in the erythrocytes [4, 7]: had similarly accumulated in the erythrocytes | systemic arterial pressure and heart rate versus saline [5]: no significant differences
